Patent US11034666B2, “Anti-inflammatory and antitumor 2-oxothiazoles and 2-oxothiophenes compounds” (Avexxin AS, priority 2013, dated 2021)

Columns and labels:
[1] = tested on: collagen-induced arthritis (CIA) mouse model; test: Therapeutic collagen-induced arthritis (CIA) study; format: in vivo, male DBA/1 mice; settings: Days 36 to 41; Compound A 30 mg/kg ip daily; Enbrel 25 mg/kg twice a week
Text: The therapeutic effect of Compound A on CIA model in male DBA/1 mice following ip administration, treatment starting 7 days after the last immunization was explored. CIA developed rapidly in mice immunized with CII, with maximum AI of 10.2 observed at 39 days post immunization. The AI and incidence of vehicle- and Compound A treated groups increased in a time-dependent mode from Days 29 to 41. […] Compound A and Enbrel performed equally well; there were no significant difference between these treatments groups.
Separate prophylactic and therapeutic efficacy studies of COMPOUND A were performed. […] Body weights were measured and recorded prior to randomization and then once daily during the study. Food consumption was measured and recorded daily. […] Necropsy examinations were performed at study termination; plasma samples were collected, organ weights were recorded […]
CIA Assessment and Treatment. CIA was assessed in mice by two blinded observers to measure paw swelling with a capacity measurement method on Day 0, Day 20, Day 22, Day 25, Day 27, Day 29, Day 32, Day 34, Day 36, Day 39 and Day 41 after the first injection. […] However, the values measured were not included in the mean value calculations of the main groups. […]

PGE2 = test: Plasma PGE2 EIA, prophylactic CIA study; format: in vivo, male DBA/1 mice
Protocol: PGE2 is recognized as an important contributor to the joint inflammation in rheumatoid arthritis,^60 and we investigated if plasma PGE2 levels were changed in response to treatment. […] There were no significant differences between the treatment groups (p>0.05).
PGE2 EIA analysis of blood plasma from the prophylactic and therapeutic CIA studies was performed according to kit protocol. Plasma samples were diluted 1:1000-1:6000 in EIA buffer and allowed to hybridize over-night (18 hrs, 4° C.). The plate was read using a Multiscan plate reader (Ascent Labsystems) (OD550 nm). The corresponding Ascent software for Multiscan, Version 2.4.1 was used to obtain the data. PGE2 levels for all treatments are shown relative to the DMSO-treated vehicle arthritic mice (n=10-11 mice in each category±SD).
For the prophylactic and the therapeutic studies, CIA was induced in male DBA/1 mice (except naïve mice) by immunization with 0.1 mL emulsion containing an equal volume of bovine type II collagen solution (2 mg/mL) and Freuds Complete Adjuvant at the tail base. The first injection was given on Day 0 and the second injection as booster was given on Day 21 (41-43). COMPOUND A, vehicle (DMSO) and MTX (0.3 mg/kg) were administered daily, Enbrel (25 mg/kg) was administrated twice a week. For the prophylactic study, treatment started one hour before the second collagen injection and continued for 21 days except for the histology groups that were sacrificed at Day 13 ([…]). For the therapeutic study, treatment started at Day 28 and continued for 14 days.

## CCCCCCCCc1ccc(OCC(=O)c2nc(C(=O)OC)cs2)cc1 [Compound A, Methyl 2-(2-(4-octylphenoxy)acetyl)thiazole-4-carboxylate]
[1]
  arthritic index (AI) in comparison to the CIA control group (in words): significantly decreased
PGE2; prophylactic CIA study, Compound A 7.5 mg/kg, MTX 0.3 mg/kg, vehicle 223.4±107, mean ± SD
  plasma PGE2 level: 139.8 ± 92 ng/mL
PGE2; prophylactic mode, vs vehicle
  reduction of plasma PGE2 levels: about 40%
